From PMC3272584 (Bioorganic & medicinal chemistry, 2011)

System: rat neonatal microglia
Test: Short-term microglia cell viability: LDH release
Conditions: short-term cell viability (90 min)

Compound	LDH50 (concentration that caused 50% release of the total LDH content of microglia cells)
[C-]#[N+][C@@]1(C)CC[C@H]2[C@H]3[C@@H](C(=C)CC[C@H]31)[C@H](CC(=C)C)C[C@@H]2C [Compound 1, 7-isocyano-11(20)-15(16)-amphilectadiene]	>10 µM
[C-]#[N+]C(C)(C)C[C@@H]1C[C@H](C)[C@H]2CC[C@H](C)[C@@]3([N+]#[C-])CCC(=C)[C@@H]1[C@H]23 [Compound 2, (–)-8,15-diisocyano-11(20)-amphilectene]	>10 µM
[C-]#[N+][C@@]12CCC(=C)[C@H]3[C@H](CC(C)(C)NC=O)C[C@H](C)[C@@H](CC[C@@H]1C)[C@@H]32 [Compound 4, 8-isocyano-11(20)-ene-15-amphilectaformamide]	>10 µM
[C-]#[N+][C@@]12CCC(=C)[C@H]3[C@H](CC(C)(C)NC(=O)CN4CCC4=O)C[C@H](C)[C@@H](CC[C@@H]1C)[C@@H]32 [Compound 5, monamphilectine A]	>10 µM
[C-]#[N+]C(C)(C)C[C@@H]1C[C@H](C)[C@H]2CC[C@H](C)[C@@]3([N+]#[C-])CCC(=O)[C@@H]1[C@H]23 [Compound 6, 8,15-diisocyano-11-amphilectone]	>10 µM
